Values after ≈ are worked out from the molar mass of the structure shown.
How the values were obtained:
Format in all cases: cell-based, Clostridium difficile
C. difficile NR-49277 = test: Spore inhibition assay; conditions: C. difficile NR-49277, ½×MIC or 1×MIC, five days
Protocol: (§1) The spore inhibition assay was performed as described in previous reports to investigate the effect of diiodohydroxyquinoline on C. difficile spore formation. Briefly, […], the bacterial suspension was split into microcentrifuge tubes and drugs were added (in triplicates) at concentrations equal to ½×MIC or 1×MIC. Tubes were then, incubated anaerobically for five days at 37° C. Thereafter, an aliquot from each tube was diluted and plated on BHIS agar plates supplemented with 0.1% taurocholic acid, to count the total bacterial counts (vegetative bacteria+spores). The remaining solution was centrifuged, and the pellet was suspended in PBS, stored overnight at 4° C., and subsequently shock-heated at 70° C. for 30 minutes to kill the vegetative cells. The resulting solution was serially diluted and plated to determine the heat-resistant spore counts. Spore inhibition assay was performed as described in previous reports to investigate the effect of DIHQ on C. difficile spore formation. Briefly, log-phase cultures of C. difficile strains (ATCC BAA-1870, ATCC 43255, and NR-49277) were diluted in BHIS to an initial density of ˜10^6 CFU/mL. Afterwards, the bacterial suspension was split in small tubes and the drugs were added (in triplicates) at concentrations equal to ½×MIC or 1×MIC. Tubes were then incubated anaerobically for 5 days at 37° C. After that, an aliquot from each tube was diluted and plated on BHIS agar plates supplemented with 0.1% taurocholic acid, to count the total bacterial count (vegetative bacteria+spores). The remaining solution was centrifuged, and the pellet was suspended in PBS and stored overnight at 4° C. then shock heated at 70° C. for 30 minutes to kill the vegetative cells. The resulting solution was serially diluted and plated to determine the heat-resistant spore counts.

[1] = system: C. difficile ATCC BAA-1870; test: Spore inhibition assay; conditions: C. difficile ATCC BAA-1870, ½×MIC or 1×MIC, five days
Protocol: as §1

C. difficile ATCC 43255 = test: Spore inhibition assay; conditions: C. difficile ATCC 43255, ½×MIC or 1×MIC, five days
Protocol: as §1

C. difficile ATCC 9689 = test: Checkerboard assay, DIHQ with metronidazole or vancomycin
Protocol: (§2) Interactions between diiodohydroxyquinoline and the anticlostridial drugs (metronidazole and vancomycin) against Clostridium difficile clinical isolates. […] The fractional inhibitory concentration index (ΣFIC) was calculated for each interaction. Interactions where the ΣFIC index was ≤0.5 were categorized as synergistic (SYN).

C. difficile P19 = test: as above
Protocol: as §2

C. difficile ATCC 1801 = test: as above
Protocol: as §2

C. difficile P11 [2] = test: as above
Protocol: as §2

C. difficile P30 = test: as above
Protocol: as §2

C. difficile I6 = test: as above
Protocol: as §2

C. difficile NR-49290 = test: MIC and MBC, broth microdilution; conditions: Clostridioides difficile, NR49290
Method in brief: (§3)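 MBC: no-growth wells plated on BHIS agar; endpoint = lowest conc. killing 99.9%. MIC50/MIC90 = lowest conc. inhibiting 50%/90% of isolates tested.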

C. difficile NR-49286 = test: MIC and MBC, broth microdilution; conditions: Clostridioides difficile, NR49286
Method in brief: as §3

C. difficile P1 = test: MIC and MBC, broth microdilution; conditions: Clostridioides difficile, P1
Method in brief: as §3

C. difficile ATCC 700057 = test: MIC and MBC, broth microdilution; conditions: Clostridioides difficile, ATCC700057
Method in brief: as §3

C. difficile P11 [3] = test: MIC and MBC, broth microdilution; conditions: Clostridioides difficile, P11
Method in brief: as §3

[4] = system: C. difficile ATCC BAA-1870; test: MIC and MBC, broth microdilution; conditions: Clostridioides difficile, ATCCBAA1870
Method in brief: as §3

C. difficile I2 = test: MIC and MBC, broth microdilution; conditions: Clostridioides difficile, I2
Method in brief: as §3

C. difficile P2 = test: MIC and MBC, broth microdilution; conditions: Clostridioides difficile, P2
Method in brief: as §3

C. difficile P7 = test: MIC and MBC, broth microdilution; conditions: Clostridioides difficile, P7
Method in brief: as §3

C. difficile P13 = test: MIC and MBC, broth microdilution; conditions: Clostridioides difficile, P13
Method in brief: as §3

Compound: CN[C@H](CC(C)C)C(=O)N[C@H]1C(=O)N[C@@H](CC(N)=O)C(=O)N[C@H]2C(=O)N[C@H]3C(=O)N[C@H](C(=O)N[C@H](C(=O)O)c4cc(O)cc(O)c4-c4cc3ccc4O)[C@H](O)c3ccc(c(Cl)c3)Oc3cc2cc(c3O[C@@H]2O[C@H](CO)[C@@H](O)[C@H](O)[C@H]2O[C@H]2C[C@](C)(N)[C@H](O)[C@H](C)O2)Oc2ccc(cc2Cl)[C@H]1O [Vancomycin, vancomycin]
- reduction in spore count (in words) (C. difficile NR-49277): almost no reduction
- reduction in spore count (in words) [1]: almost no reduction
- reduction in spore count (in words) (C. difficile ATCC 43255): almost no reduction
- MIC of vancomycin combined with DIHQ (C. difficile ATCC 9689; C. difficile ATCC 9689): 0.125 µg/mL
- MIC (C. difficile ATCC 9689; Clostridioides difficile, ATCC9689, read-out: MIC alone): 1 µg/mL
- MIC of vancomycin combined with DIHQ (C. difficile P19; C. difficile P19): 0.125 µg/mL
- MIC (C. difficile P19; Clostridioides difficile, P19, read-out: MIC alone): 1 µg/mL
- MIC of vancomycin combined with DIHQ (C. difficile ATCC 1801; C. difficile ATCC 1801): 0.06 µg/mL
- MIC (C. difficile ATCC 1801; Clostridioides difficile, ATCC1801, read-out: MIC alone): 0.5 µg/mL
- MIC of vancomycin combined with DIHQ (C. difficile P11 [2]; C. difficile P11): 0.125 µg/mL
- MIC (C. difficile P11 [2]; Clostridioides difficile, P11, read-out: MIC alone): 1 µg/mL
- MIC of vancomycin combined with DIHQ (C. difficile P30; C. difficile P30): 0.125 µg/mL
- MIC (C. difficile P30; Clostridioides difficile, P30, read-out: MIC alone): 1 µg/mL
- MIC of vancomycin combined with DIHQ (C. difficile I6; C. difficile I6): 0.06 µg/mL
- MIC (C. difficile I6; Clostridioides difficile, I6, read-out: MIC alone): 0.5 µg/mL
- MBC (C. difficile NR-49290): 1 µg/mL (≈ 0.69 µM)
- MIC (C. difficile NR-49290): 0.5 µg/mL (≈ 0.345 µM)
- MBC (C. difficile NR-49286): 0.5 µg/mL (≈ 0.345 µM)
- MIC (C. difficile NR-49286): 0.25 µg/mL (≈ 0.173 µM)
- MBC (C. difficile P1): 0.5 µg/mL (≈ 0.345 µM)
- MIC (C. difficile P1): 0.5 µg/mL (≈ 0.345 µM)
- MBC (C. difficile ATCC 700057): 0.5 µg/mL (≈ 0.345 µM)
- MIC (C. difficile ATCC 700057): 0.5 µg/mL (≈ 0.345 µM)
- MBC (C. difficile P11 [3]): 1 µg/mL (≈ 0.69 µM)
- MIC (C. difficile P11 [3]): 1 µg/mL (≈ 0.69 µM)
- MBC [4]: 1 µg/mL (≈ 0.69 µM)
- MIC [4]: 1 µg/mL (≈ 0.69 µM)
- MBC (C. difficile I2): 1 µg/mL (≈ 0.69 µM)
- MIC (C. difficile I2): 1 µg/mL (≈ 0.69 µM)
- MBC (C. difficile P2): 1 µg/mL (≈ 0.69 µM)
- MIC (C. difficile P2): 1 µg/mL (≈ 0.69 µM)
- MBC (C. difficile P7): 0.5 µg/mL (≈ 0.345 µM)
- MIC (C. difficile P7): 0.5 µg/mL (≈ 0.345 µM)
- MBC (C. difficile P13): 0.5 µg/mL (≈ 0.345 µM)
- MIC (C. difficile P13): 0.5 µg/mL (≈ 0.345 µM)
